# US20240148733A1, “COMBINATION THERAPY” (Genentech, Inc., priority 2021, published 2024)
# Legend:
# H2122 cells (KRAS G12C) = experiment: Drug combination assay (CellTiter-Glo cell viability); assay type: cell-based; conditions: six days, 384-wells
# Procedure: Cells were seeded in either 96-well or 384-well plates 16 h before treatment at a density of 1000 cells per well. Then, cells were treated with varying concentrations of compound(s) as indicated in FIGS. 1-8 (384-wells) and FIGS. 10-105 (96-wells), either a single agent or in combination, for six days. The relative number of viable cells was estimated using CellTiter-Glo Luminescent Cell Viability Assay (Promega, G7573). Total luminescence was detected on a Wallac Multilabel Reader (Perkin-Elmer).
# [1] = tested on: cells resistant to Compound K2; experiment: Soft agar 3D culture; assay type: cell-based; conditions: combination with Compound K2 (a KRAS inhibitor); 11-14 day incubation; Gelcount cell counting
# Procedure: Two heat blocks (1× without blocks, 1× with 50 ml tube block) were heated to 44° C. Flat-bottom 96-well non-tissue culture treated assay plates (Falcon 353219) and fluid reservoirs were kept at 37° C. 2×RPMI+20% FCS (which can be stored at 4° C.) were made and warmed to 37° C. 100 ml 1.2% agarose and 0.58% agarose solution was made by adding […] sterile water to a sterile 500 ml bottle and then carefully adding 1.2 gram/0.58 gram agarose (using normal out-of-the-hood weight), avoiding bubbles, foam, and sticking of undiluted agarose to walls as much as possible. The solution was then microwaved until fully dissolved and bubbling. The solution was then cooled for 10-15 minutes at room temperature and incubated at 37° C. The solution can be stored at room temperature for future use.
# For each plate, 2 ml 1.2% agarose was mixed with 2 ml 2×RPMI+20% FCS in a 50 ml tube in a heat block by swirling the tube (minimizing pipetting up and down, as this cools the agarose too much). By double-tap (pipet is pushed in completely, liquid is taken up, then pushed out until first stop only), 40 μl 1.2% agarose/96-well was added, excluding edge 96-wells. The agarose was set at “waterpas” level and stored at 4° C. until further use. 1.2% agarose-containing plate was placed on ice for 10 minutes before plating cells.
# Cells were trypsinized and counted. […]
smiles,measurement,setting,value
"C=CC(=O)Nc1cc2c(c(-c3ccc(C(C)C)cc3)c1)OCC2 [Compound T2, N-(7-(4-isopropylphenyl)-2,3-dihydrobenzofuran-5-yl)acrylamide]",% inhibition of H2122 cells (KRAS G12C),H2122 cells (KRAS G12C); combination with Compound K1 (a KRAS inhibitor),sensitizes cells resistant to Compound K1
same,% inhibition of H2122 cells (KRAS G12C),H2122 cells (KRAS G12C); combination with Compound K2 (a KRAS inhibitor),sensitizes cells resistant to Compound K2
same,soft agar 3D culture growth,[1],sensitizes cells resistant to Compound K2
